Results published in patent US5508428A, “Spiro compound” (Daiichi Phamaceutical Co., Ltd., priority 1988, dated 1996).
≈ marks a conversion by molar mass, not a printed value.

Columns and labels:
Format in all cases: cell-based
E. coli, NIHJ = experiment: Antibacterial activity (MIC), E. coli NIHJ; conditions: for MIC: Escherichia coli
Protocol: (§1) The antibacterial activity assays were performed by the method specified by Japan Society of Chemotherapy (Chemotherapy 29(1), 76 (1981). The table of antibacterial activity is followed by the reaction schemes for the synthesis of various spiro ring-containing cyclic amine derivatives, intermediate compounds for synthesis of quinolone rings and synthesis of various spiro compounds.

S. flexneri, 2A 5503 = experiment: Antibacterial activity (MIC), S. flexneri 2A 5503; conditions: for MIC: Shigella flexneri, 2A5503
Protocol: as §1

Pr. vulgaris, 08601 = experiment: Antibacterial activity (MIC), Pr. vulgaris 08601; conditions: for MIC: Proteus vulgaris
Protocol: as §1

Pr. mirabillis, IF0-3849 = experiment: Antibacterial activity (MIC), Pr. mirabillis IF0-3849
Protocol: as §1

Ser. marcescens, 10100 = experiment: Antibacterial activity (MIC), Ser. marcescens 10100; conditions: for MIC: Serratia marcescens, 10100, Ser. marcescens; for Antibacterial Activity (MIC): Ser. marcescens
Protocol: as §1

Ps. aeruginosa, 32104 = experiment: Antibacterial activity (MIC), Ps. aeruginosa 32104; conditions: for MIC: Pseudomonas aeruginosa, 32104, Ps. aeruginosa; for Antibacterial Activity (MIC): Ps. aeruginosa
Protocol: as §1

Ps. aeruginosa, 32121 = experiment: Antibacterial activity (MIC), Ps. aeruginosa 32121; conditions: for MIC: Pseudomonas aeruginosa, 32121, Ps. aeruginosa; for Antibacterial Activity (MIC): Ps. aeruginosa
Protocol: as §1

[1] = tested on: Ps. maltophilia, IID-1275; experiment: Antibacterial activity (MIC), Ps. maltophilia IID-1275; conditions: for MIC: Stenotrophomonas maltophilia, IID1275, Ps. maltophilia; for Antibacterial Activity (MIC): Ps. maltophilia
Protocol: as §1

S. aureus, 209P = experiment: Antibacterial activity (MIC), S. aureus 209P; conditions: for MIC: Staphylococcus aureus
Protocol: as §1

S. epidermidis, 56500 = experiment: Antibacterial activity (MIC), S. epidermidis 56500; conditions: for MIC: Staphylococcus epidermidis, 56500, S. epidermidis; for Antibacterial Activity (MIC): S. epidermidis
Protocol: as §1

Str. pyogenes, G-36 = experiment: Antibacterial activity (MIC), Str. pyogenes G-36; conditions: for MIC: Streptococcus pyogenes, G36, Str. pyogenes; for Antibacterial Activity (MIC): Str. pyogenes
Protocol: as §1

[2] = tested on: Str. faecalis, ATCC-19433; experiment: Antibacterial activity (MIC), Str. faecalis ATCC-19433; conditions: for MIC: Enterococcus faecalis, ATCC19433, Str. faecalis; for Antibacterial Activity (MIC): Str. faecalis
Protocol: as §1

Compound	MIC (E. coli, NIHJ) [µg/mL]	MIC (S. flexneri, 2A 5503) [µg/mL]	MIC (Pr. vulgaris, 08601) [µg/mL]	MIC (Pr. mirabillis, IF0-3849) [µg/mL]	MIC (Ser. marcescens, 10100) [µg/mL]	MIC (Ps. aeruginosa, 32104) [µg/mL]	MIC (Ps. aeruginosa, 32121) [µg/mL]	MIC [1] [µg/mL]	MIC (S. aureus, 209P) [µg/mL]	MIC (S. epidermidis, 56500) [µg/mL]	MIC (Str. pyogenes, G-36) [µg/mL]	MIC [2] [µg/mL]	Antibacterial Activity (MIC) (Ps. aeruginosa, 32104) [µg/mL]	Antibacterial Activity (MIC) (S. epidermidis, 56500) [µg/mL]	Antibacterial Activity (MIC) [2] [µg/mL]	further results
NC1CN(c2c(F)cc3c(=O)c(C(=O)O)cn(C4CC4)c3c2Cl)CC12CC2 (racemic) [Compound 32, 7-(7-Amino-5-azaspiro[2.4]heptan-5-yl)-8-chloro-1-cyclopropyl-6-fluoro-1,4-dihydro-4-oxoquinoline-3-carboxylic Acid]	≤ 0.05	≤ 0.05	≤ 0.05	≤ 0.05	≤ 0.05	0.1 (≈ 0.255 µM)	≤ 0.05	≤ 0.05	≤ 0.05	0.1 (≈ 0.255 µM)	0.1 (≈ 0.255 µM)	0.1 (≈ 0.255 µM)				
NC1CN(c2cc3c(cc2F)c(=O)c(C(=O)O)cn3C2CC2)CC12CC2 (racemic) [Compound 33, 7-(7-Amino-5-azaspiro[2.4]heptan-5-yl)-1-cyclopropyl-6-fluoro-1,4-dihydro-4-oxoquinoline-3-carboxylic Acid]	≤ 0.05	≤ 0.05	≤ 0.05	≤ 0.05	0.1 (≈ 0.28 µM)	0.1 (≈ 0.28 µM)	≤ 0.05	0.1 (≈ 0.28 µM)	≤ 0.05	0.2 (≈ 0.56 µM)	0.39 (≈ 1.09 µM)	0.39 (≈ 1.09 µM)				
NC1CN(c2c(F)cc3c(=O)c(C(=O)O)cn(C4CC4)c3c2Cl)CC12CC2 (single isomer, unassigned) [Compound 32a, 7-(7-amino-5-azaspiro[2.4]heptan-5-yl)-8-chloro-1-cyclopropyl-6-fluoro-1,4-dihydro-4-oxoquinoline-3-carboxylic acid]	≤ 0.05	≤ 0.05	≤ 0.05	0.1 (≈ 0.255 µM)	0.1 (≈ 0.255 µM)		0.1 (≈ 0.255 µM)	0.1 (≈ 0.255 µM)	0.1 (≈ 0.255 µM)		0.78 (≈ 1.99 µM)		0.39	0.20	0.39	
NC1CN(c2c(F)cc3c(=O)c(C(=O)O)cn(C4CC4)c3c2Cl)CC12CC2 (single isomer, unassigned) [Compound 32b, 7-(7-amino-5-azaspiro[2.4]heptan-5-yl)-8-chloro-1-cyclopropyl-6-fluoro-1,4-dihydro-4-oxoquinoline-3-carboxylic acid]													0.10	≤ 0.05	0.10	Antibacterial Activity (MIC) (E. coli, NIHJ): ≤ 0.05 µg/mL; Antibacterial Activity (MIC) (S. flexneri, 2A 5503): ≤ 0.05 µg/mL; Antibacterial Activity (MIC) (Pr. vulgaris, 08601): ≤ 0.05 µg/mL; Antibacterial Activity (MIC) (Pr. mirabillis, IF0-3849): ≤ 0.05 µg/mL; Antibacterial Activity (MIC) (Ser. marcescens, 10100): ≤ 0.05 µg/mL; Antibacterial Activity (MIC) (Ps. aeruginosa, 32121): ≤ 0.05 µg/mL; Antibacterial Activity (MIC) [1]: ≤ 0.05 µg/mL; Antibacterial Activity (MIC) (S. aureus, 209P): ≤ 0.05 µg/mL; Antibacterial Activity (MIC) (Str. pyogenes, G-36): 0.39 µg/mL
NC1CN(c2c(F)cc3c(=O)c(C(=O)O)cn(C4CC4)c3c2F)CC12CC2 (single isomer, unassigned; (+)) [Compound 31a, (+)-7-(7-Amino-5-azaspiro[2.4]heptan-5-yl)-1-cyclopropyl-6,8-difluoro-1,4-dihydro-4-oxoquinoline-3-carboxylic Acid]	≤ 0.05	≤ 0.05	≤ 0.05	0.1 (≈ 0.266 µM)	≤ 0.05		0.1 (≈ 0.266 µM)	0.1 (≈ 0.266 µM)	0.1 (≈ 0.266 µM)				0.20	0.39	0.79	Antibacterial Activity (MIC) (Str. pyogenes, G-36): 1.57 µg/mL
NC1CN(c2c(F)cc3c(=O)c(C(=O)O)cn(C4CC4)c3c2F)CC12CC2 (single isomer, unassigned; (-)) [Compound 31b, (-)-7-(7-Amino-5-azaspiro[2.4]heptan-5-yl)-1-cyclopropyl-6,8-difluoro-1,4-dihydro-4-oxoquinoline-3-carboxylic Acid]													≤ 0.05	≤ 0.05	0.10	Antibacterial Activity (MIC) (E. coli, NIHJ): ≤ 0.05 µg/mL; Antibacterial Activity (MIC) (S. flexneri, 2A 5503): ≤ 0.05 µg/mL; Antibacterial Activity (MIC) (Pr. vulgaris, 08601): ≤ 0.05 µg/mL; Antibacterial Activity (MIC) (Pr. mirabillis, IF0-3849): ≤ 0.05 µg/mL; Antibacterial Activity (MIC) (Ser. marcescens, 10100): ≤ 0.05 µg/mL; Antibacterial Activity (MIC) (Ps. aeruginosa, 32121): ≤ 0.05 µg/mL; Antibacterial Activity (MIC) [1]: ≤ 0.05 µg/mL; Antibacterial Activity (MIC) (S. aureus, 209P): ≤ 0.05 µg/mL; Antibacterial Activity (MIC) (Str. pyogenes, G-36): 0.10 µg/mL
NC1CN(c2nc3c(cc2F)c(=O)c(C(=O)O)cn3C2CC2)CC12CC2 (single isomer, unassigned; (-)) [Compound 35b, (-)-7-(7-Amino-5-azaspiro[2.4]heptan-5-yl)-1-cyclopropyl-6-fluoro-4-oxo-1,4-dihydro-1,8-naphthyridine-3-carboxylic acid]	≤ 0.05	≤ 0.05	≤ 0.05	≤ 0.05	≤ 0.05	≤ 0.05	≤ 0.05	≤ 0.05	≤ 0.05	0.1 (≈ 0.279 µM)	0.78 (≈ 2.18 µM)	0.39 (≈ 1.09 µM)				
C[C@H]1COc2c(N3CC(N)C4(CC4)C3)c(F)cc3c(=O)c(C(=O)O)cn1c23 (single isomer, unassigned; (-)) [Compound 36b]	≤ 0.05	≤ 0.05	≤ 0.05	0.1 (≈ 0.268 µM)	0.2 (≈ 0.536 µM)	0.2 (≈ 0.536 µM)	0.1 (≈ 0.268 µM)	0.39 (≈ 1.04 µM)	≤ 0.05	0.1 (≈ 0.268 µM)	0.39 (≈ 1.04 µM)	0.39 (≈ 1.04 µM)				
Cc1c(N2CC(N)C3(CC3)C2)c(F)cc2c(=O)c(C(=O)O)cn(C3CC3)c12 (single isomer, unassigned; (-)) [Compound 55b, (-)-7-(7-Amino-5-azaspiro[2.3]heptan-5-yl)-1-cyclopropyl-6-fluoro-8-methyl-4-oxo-1,4-dihydroquinoline-3-carboxylic acid]	≤ 0.05	≤ 0.05	≤ 0.05	≤ 0.05	0.1 (≈ 0.269 µM)	≤ 0.05	≤ 0.05	≤ 0.05	≤ 0.05	≤ 0.05	0.1 (≈ 0.269 µM)	0.1 (≈ 0.269 µM)				
NC1CN(c2c(F)cc3c(=O)c(C(=O)O)cn(C4CC4)c3c2F)CC12CC2 (stereo not drawn) [Compound 31, 7-(7-Amino-5-azaspiro[2.4]heptan-5-yl)-1-cyclopropyl-6,8-difluoro-1,4-dihydro-4-oxoquinoline-3-carboxylic Acid]	≤ 0.05	≤ 0.05	≤ 0.05	≤ 0.05	≤ 0.05	0.1 (≈ 0.266 µM)	≤ 0.05	≤ 0.05	≤ 0.05	0.1 (≈ 0.266 µM)	0.39 (≈ 1.04 µM)	0.2 (≈ 0.533 µM)				
N[C@@H]1CN(c2cc3c(cc2F)c(=O)c(C(=O)O)cn3C2CC2)CC12CC2 [Compound 33b, (-)-7-[7-(S)-amino-5-azaspiro[2.3]heptan-5-yl)-1-cyclopropyl-6-fluoro-1,4-dihydro-4-oxoquinoline-3-carboxylic acid]	≤ 0.05	≤ 0.05	≤ 0.05	≤ 0.05	≤ 0.05	≤ 0.05	≤ 0.05	0.1 (≈ 0.28 µM)	≤ 0.05	0.1 (≈ 0.28 µM)	0.2 (≈ 0.56 µM)	0.2 (≈ 0.56 µM)				
